The source of these data is patent publication US20230087609A1, “USE OF A SOLUBLE GUANYLATE CYCLASE (sGC) STIMULATOR OR OF A COMBINATION OF A sGC STIMULATOR AND AN sGC ACTIVATOR FOR CONDITIONS WHEREIN THE HEME GROUP OF sGC IS OXIDIZED OR WHEREIN sGC IS DEFICIENT IN HEME” (Universiteit Maastricht, priority 2020, published 2023).

The target in the assay is T1, human sGCa1 and mutant sGCβ1H105F (apo-sGC) in Sf9 cells (Homo sapiens, UniProt Q02153, H105F).
T1 construct: His tag; expressed in transfected cells; host or cells: Sf9 cells co-infected with baculoviruses
T1 sequence (Q02153 1-619 H105F): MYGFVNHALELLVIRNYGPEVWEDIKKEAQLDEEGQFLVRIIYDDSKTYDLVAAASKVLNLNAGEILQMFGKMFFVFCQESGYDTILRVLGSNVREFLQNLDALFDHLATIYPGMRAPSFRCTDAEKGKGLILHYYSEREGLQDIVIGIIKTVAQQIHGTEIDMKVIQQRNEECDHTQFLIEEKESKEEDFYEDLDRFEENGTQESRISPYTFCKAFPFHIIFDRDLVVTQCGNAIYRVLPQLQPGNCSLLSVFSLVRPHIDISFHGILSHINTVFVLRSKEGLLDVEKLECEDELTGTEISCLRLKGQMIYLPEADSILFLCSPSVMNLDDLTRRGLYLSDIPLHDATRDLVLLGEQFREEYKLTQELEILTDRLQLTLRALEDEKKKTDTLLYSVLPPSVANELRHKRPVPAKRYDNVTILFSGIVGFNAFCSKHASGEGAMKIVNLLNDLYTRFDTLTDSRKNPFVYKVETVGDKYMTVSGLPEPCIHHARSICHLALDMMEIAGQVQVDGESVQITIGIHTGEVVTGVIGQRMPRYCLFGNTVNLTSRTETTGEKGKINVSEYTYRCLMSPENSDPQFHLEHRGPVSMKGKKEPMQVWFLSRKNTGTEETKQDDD
T1 sequence (Q02108 1-690 partner): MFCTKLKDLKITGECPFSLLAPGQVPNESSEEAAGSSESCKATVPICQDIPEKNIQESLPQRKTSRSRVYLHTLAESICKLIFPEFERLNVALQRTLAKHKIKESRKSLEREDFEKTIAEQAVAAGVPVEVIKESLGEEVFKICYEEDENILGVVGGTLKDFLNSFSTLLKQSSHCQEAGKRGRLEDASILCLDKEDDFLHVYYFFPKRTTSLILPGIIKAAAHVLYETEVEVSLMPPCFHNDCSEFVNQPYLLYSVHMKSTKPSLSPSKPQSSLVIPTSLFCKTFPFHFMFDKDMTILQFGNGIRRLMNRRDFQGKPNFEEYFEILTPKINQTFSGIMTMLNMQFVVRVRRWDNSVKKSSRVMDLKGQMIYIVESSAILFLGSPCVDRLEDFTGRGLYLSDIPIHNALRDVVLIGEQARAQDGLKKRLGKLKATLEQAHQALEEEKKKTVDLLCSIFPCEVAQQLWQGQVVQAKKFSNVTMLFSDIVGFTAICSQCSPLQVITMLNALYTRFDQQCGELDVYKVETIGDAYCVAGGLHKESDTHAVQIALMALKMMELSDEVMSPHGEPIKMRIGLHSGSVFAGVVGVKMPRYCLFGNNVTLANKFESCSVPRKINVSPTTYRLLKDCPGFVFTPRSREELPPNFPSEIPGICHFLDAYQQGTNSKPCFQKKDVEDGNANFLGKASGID
Description: cGMP accumulation in intact Sf9 cells expressing apo-sGC. In kind it is cell-based. As to conditions: 10 micromole/L DETA-NONOate alone (FIG. 12A). The protocol: Sf9 cells were co-infected with baculoviruses expressing human sGCa1 and mutant sGCβ1H105F. Forty-eight hours post-infection, the cells were treated with vehicle, NO donor, sGC stimulator, sGC activator or combination in 2 ml final volume of 10^6 cells per ml then the cells were incubated for 10 min at 27° C. The reaction was terminated by the addition of 0.1M of HCl, and cGMP was extracted on ice for 20 min. Cells were then sonicated to ensure complete lysis. The extract was then centrifuged and used for cGMP determination by an ELISA (Enzo Life Sciences).
Forty-eight hours post-infection, the cells were treated with vehicle, NO donor, sGC stimulator, sGC activator or combination in 2 ml final volume of 10^6 cells per ml and subsequently, the cells were incubated for 10 minutes at 27° C. The reaction was terminated by the addition of 0.1M of HCl, and cGMP was extracted on ice for 20 minutes. Cells were then sonicated to ensure complete lysis. The obtained cell extract was then centrifuged and used for cGMP determination by an ELISA. […] In the absence of any of the NO donor, the sGCs or the combination of these compounds, no cGMP synthesis is detected. It is now for the first time shown by the inventors that apo-sGC is still activatable even in the absence of an sGC activator known in the art. The presence of the sGCs facilitates NO binding to a secondary, heme-independent NO binding-site, and in addition, presence of an NO donor acts synergistically, when cGMP production is considered. Due to the invention, it is now made possible to treat patients with an sGCs, resulting in cGMP formation, under conditions wherein treatment with sGC activators has no effect at all or a too small effect, e.g. under conditions of ischemia, neonatal asphyxia, stroke, hypoxia, acute respiratory distress syndrome, asthma, oxidative (organ and/or tissue and/or cell) damage, etc. The invention provides a new treatment modality for these patients, which are often not sensitive (enough) for sGCa treatment. […] C.

Entries after “also recorded” stand apart in the source; their conditions may differ.

Consider `NCCN(CCN)/[N+]([O-])=N/O` [DETA-NONOate], for which the “cGMP formation, NO donor only” value was “hardly produced any cGMP; also recorded: no effect on cGMP formation”.
